Experiments:
Test in all cases: relative viability (nuclei count vs DMSO), 5 days (fraction); higher = more cells survive
Bexarotene + Linsitinib = compound: C=C(c1ccc(C(=O)O)cc1)c1cc2c(cc1C)C(C)(C)CCC2(C)C [Bexarotene] + C[C@]1(O)C[C@@H](c2nc(-c3ccc4ccc(-c5ccccc5)nc4c3)c3c(N)nccn32)C1 [Linsitinib] (partner 1 µM)
Outline: (§1)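 A single step with final 0.05% Triton X-100, 1% formaldehyde and 1 ug/ml Hoechst fixed the cells and stained nuclei 5 days after treatment. Lung cancer cell lines in 1536-well plates had been treated by pin tool the day after seeding with one drug alone or a fixed anchor-drug dose plus five library-drug doses (not always all listed) in √10 steps, and nuclei were counted on 4× images. Relative viability is the ratio of nuclei in treated wells to nuclei in vehicle wells, taken as the median of duplicate plates.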

Bexarotene + Pemetrexed = compound: C=C(c1ccc(C(=O)O)cc1)c1cc2c(cc1C)C(C)(C)CCC2(C)C [Bexarotene] + Nc1nc2[nH]cc(CCc3ccc(C(=O)N[C@@H](CCC(=O)O)C(=O)O)cc3)c2c(=O)[nH]1 [Pemetrexed] (partner 0.2 µM)
Outline: as §1

Bexarotene + Vorinostat = compound: C=C(c1ccc(C(=O)O)cc1)c1cc2c(cc1C)C(C)(C)CCC2(C)C [Bexarotene] + O=C(CCCCCCC(=O)Nc1ccccc1)NO [Vorinostat] (partner 1 µM)
Outline: as §1

Bexarotene + Olaparib = compound: C=C(c1ccc(C(=O)O)cc1)c1cc2c(cc1C)C(C)(C)CCC2(C)C [Bexarotene] + O=C(c1cc(Cc2n[nH]c(=O)c3ccccc23)ccc1F)N1CCN(C(=O)C2CC2)CC1 [Olaparib] (partner 8 µM)
Outline: as §1

With NCI-H322M the relative viability (Bexarotene + Linsitinib; first compound 0.08 µM) was 1.08, the relative viability (Bexarotene + Linsitinib; first compound 0.253 µM) was 0.947 and the relative viability (Bexarotene + Linsitinib; first compound 0.8 µM) was 0.846. For the same cell line, the relative viability (Bexarotene + Linsitinib; first compound 2.53 µM) was 0.92, the relative viability (Bexarotene + Linsitinib; first compound 8 µM) was 0.891 and the relative viability (Bexarotene + Pemetrexed; first compound 0.08 µM) was 0.698. The relative viability (Bexarotene + Pemetrexed; first compound 0.253 µM) was 0.611, the relative viability (Bexarotene + Pemetrexed; first compound 0.8 µM) was 0.574 and the relative viability (Bexarotene + Pemetrexed; first compound 2.53 µM) was 0.626. For the same cell line, the relative viability (Bexarotene + Pemetrexed; first compound 8 µM) was 0.695, the relative viability (Bexarotene + Vorinostat; first compound 0.08 µM) was 0.978 and the relative viability (Bexarotene + Vorinostat; first compound 0.253 µM) was 0.983. The relative viability (Bexarotene + Vorinostat; first compound 0.8 µM) was 0.945, the relative viability (Bexarotene + Vorinostat; first compound 2.53 µM) was 0.757 and the relative viability (Bexarotene + Vorinostat; first compound 8 µM) was 0.934. The relative viability (Bexarotene + Olaparib; first compound 0.08 µM) was 0.771, the relative viability (Bexarotene + Olaparib; first compound 0.253 µM) was 0.826 and the relative viability (Bexarotene + Olaparib; first compound 0.8 µM) was 0.788. It also gave a relative viability (Bexarotene + Olaparib; first compound 2.53 µM) of 0.834 and a relative viability (Bexarotene + Olaparib; first compound 8 µM) of 0.871.

NCI-H358 showed a relative viability (Bexarotene + Linsitinib; first compound 0.08 µM) of 0.874, a relative viability (Bexarotene + Linsitinib; first compound 0.253 µM) of 0.699 and a relative viability (Bexarotene + Linsitinib; first compound 0.8 µM) of 0.568. For the same cell line, the relative viability (Bexarotene + Linsitinib; first compound 2.53 µM) was 0.778, the relative viability (Bexarotene + Linsitinib; first compound 8 µM) was 0.643 and the relative viability (Bexarotene + Pemetrexed; first compound 0.08 µM) was 0.182. For the same cell line, the relative viability (Bexarotene + Pemetrexed; first compound 0.253 µM) was 0.184, the relative viability (Bexarotene + Pemetrexed; first compound 0.8 µM) was 0.144 and the relative viability (Bexarotene + Pemetrexed; first compound 2.53 µM) was 0.167. The relative viability (Bexarotene + Pemetrexed; first compound 8 µM) was 0.158, the relative viability (Bexarotene + Vorinostat; first compound 0.08 µM) was 0.7 and the relative viability (Bexarotene + Vorinostat; first compound 0.253 µM) was 0.798. For the same cell line, the relative viability (Bexarotene + Vorinostat; first compound 0.8 µM) was 0.667, the relative viability (Bexarotene + Vorinostat; first compound 2.53 µM) was 0.934 and the relative viability (Bexarotene + Vorinostat; first compound 8 µM) was 0.703. It also gave a relative viability (Bexarotene + Olaparib; first compound 0.08 µM) of 0.855, a relative viability (Bexarotene + Olaparib; first compound 0.253 µM) of 0.596 and a relative viability (Bexarotene + Olaparib; first compound 0.8 µM) of 0.573. It also gave a relative viability (Bexarotene + Olaparib; first compound 2.53 µM) of 0.625 and a relative viability (Bexarotene + Olaparib; first compound 8 µM) of 0.551.

For NCI-H441, the relative viability (Bexarotene + Linsitinib; first compound 0.08 µM) was 0.587, the relative viability (Bexarotene + Linsitinib; first compound 0.253 µM) was 0.583 and the relative viability (Bexarotene + Linsitinib; first compound 0.8 µM) was 0.578. For the same cell line, the relative viability (Bexarotene + Linsitinib; first compound 2.53 µM) was 0.616, the relative viability (Bexarotene + Linsitinib; first compound 8 µM) was 0.556 and the relative viability (Bexarotene + Pemetrexed; first compound 0.08 µM) was 0.268. It also gave a relative viability (Bexarotene + Pemetrexed; first compound 0.253 µM) of 0.319, a relative viability (Bexarotene + Pemetrexed; first compound 0.8 µM) of 0.26 and a relative viability (Bexarotene + Pemetrexed; first compound 2.53 µM) of 0.257. For the same cell line, the relative viability (Bexarotene + Pemetrexed; first compound 8 µM) was 0.249, the relative viability (Bexarotene + Vorinostat; first compound 0.08 µM) was 0.679 and the relative viability (Bexarotene + Vorinostat; first compound 0.253 µM) was 0.805. For the same cell line, the relative viability (Bexarotene + Vorinostat; first compound 0.8 µM) was 0.628, the relative viability (Bexarotene + Vorinostat; first compound 2.53 µM) was 0.716 and the relative viability (Bexarotene + Vorinostat; first compound 8 µM) was 0.547. The relative viability (Bexarotene + Olaparib; first compound 0.08 µM) was 0.608, the relative viability (Bexarotene + Olaparib; first compound 0.253 µM) was 0.61 and the relative viability (Bexarotene + Olaparib; first compound 0.8 µM) was 0.628. The relative viability (Bexarotene + Olaparib; first compound 2.53 µM) was 0.599 and the relative viability (Bexarotene + Olaparib; first compound 8 µM) was 0.495.

For NCI-H460, the relative viability (Bexarotene + Linsitinib; first compound 0.08 µM) was 0.94, the relative viability (Bexarotene + Linsitinib; first compound 0.253 µM) was 0.865 and the relative viability (Bexarotene + Linsitinib; first compound 0.8 µM) was 0.757. It also gave a relative viability (Bexarotene + Linsitinib; first compound 2.53 µM) of 0.66, a relative viability (Bexarotene + Linsitinib; first compound 8 µM) of 0.744 and a relative viability (Bexarotene + Pemetrexed; first compound 0.08 µM) of 0.062. For the same cell line, the relative viability (Bexarotene + Pemetrexed; first compound 0.253 µM) was 0.0605, the relative viability (Bexarotene + Pemetrexed; first compound 0.8 µM) was 0.058 and the relative viability (Bexarotene + Pemetrexed; first compound 2.53 µM) was 0.0661. The relative viability (Bexarotene + Pemetrexed; first compound 8 µM) was 0.0586, the relative viability (Bexarotene + Vorinostat; first compound 0.08 µM) was 0.812 and the relative viability (Bexarotene + Vorinostat; first compound 0.253 µM) was 0.752. The relative viability (Bexarotene + Vorinostat; first compound 0.8 µM) was 0.644, the relative viability (Bexarotene + Vorinostat; first compound 2.53 µM) was 0.716 and the relative viability (Bexarotene + Vorinostat; first compound 8 µM) was 0.67. For the same cell line, the relative viability (Bexarotene + Olaparib; first compound 0.08 µM) was 0.54, the relative viability (Bexarotene + Olaparib; first compound 0.253 µM) was 0.568 and the relative viability (Bexarotene + Olaparib; first compound 0.8 µM) was 0.409. The relative viability (Bexarotene + Olaparib; first compound 2.53 µM) was 0.536 and the relative viability (Bexarotene + Olaparib; first compound 8 µM) was 0.492.

In the case of NCI-H520, the relative viability (Bexarotene + Linsitinib; first compound 0.08 µM) is reported as 1.02, the relative viability (Bexarotene + Linsitinib; first compound 0.253 µM) is reported as 0.951 and the relative viability (Bexarotene + Linsitinib; first compound 0.8 µM) is reported as 0.79. For the same cell line, the relative viability (Bexarotene + Linsitinib; first compound 2.53 µM) was 0.976, the relative viability (Bexarotene + Linsitinib; first compound 8 µM) was 0.88 and the relative viability (Bexarotene + Pemetrexed; first compound 0.08 µM) was 0.799. For the same cell line, the relative viability (Bexarotene + Pemetrexed; first compound 0.253 µM) was 0.663, the relative viability (Bexarotene + Pemetrexed; first compound 0.8 µM) was 0.717 and the relative viability (Bexarotene + Pemetrexed; first compound 2.53 µM) was 0.797. For the same cell line, the relative viability (Bexarotene + Pemetrexed; first compound 8 µM) was 0.708, the relative viability (Bexarotene + Vorinostat; first compound 0.08 µM) was 0.781 and the relative viability (Bexarotene + Vorinostat; first compound 0.253 µM) was 0.695. The relative viability (Bexarotene + Vorinostat; first compound 0.8 µM) was 0.778, the relative viability (Bexarotene + Vorinostat; first compound 2.53 µM) was 0.775 and the relative viability (Bexarotene + Vorinostat; first compound 8 µM) was 0.716. For the same cell line, the relative viability (Bexarotene + Olaparib; first compound 0.08 µM) was 0.368, the relative viability (Bexarotene + Olaparib; first compound 0.253 µM) was 0.347 and the relative viability (Bexarotene + Olaparib; first compound 0.8 µM) was 0.313. The relative viability (Bexarotene + Olaparib; first compound 2.53 µM) was 0.316 and the relative viability (Bexarotene + Olaparib; first compound 8 µM) was 0.332.

With NCI-H596 the relative viability (Bexarotene + Linsitinib; first compound 0.08 µM) was 1.12, the relative viability (Bexarotene + Linsitinib; first compound 0.253 µM) was 0.966 and the relative viability (Bexarotene + Linsitinib; first compound 0.8 µM) was 0.838. The relative viability (Bexarotene + Linsitinib; first compound 2.53 µM) was 0.981, the relative viability (Bexarotene + Linsitinib; first compound 8 µM) was 1.06 and the relative viability (Bexarotene + Pemetrexed; first compound 0.08 µM) was 0.47. It also gave a relative viability (Bexarotene + Pemetrexed; first compound 0.253 µM) of 0.482, a relative viability (Bexarotene + Pemetrexed; first compound 0.8 µM) of 0.451 and a relative viability (Bexarotene + Pemetrexed; first compound 2.53 µM) of 0.456. The relative viability (Bexarotene + Pemetrexed; first compound 8 µM) was 0.736, the relative viability (Bexarotene + Vorinostat; first compound 0.08 µM) was 0.655 and the relative viability (Bexarotene + Vorinostat; first compound 0.253 µM) was 0.69. The relative viability (Bexarotene + Vorinostat; first compound 0.8 µM) was 0.414, the relative viability (Bexarotene + Vorinostat; first compound 2.53 µM) was 0.533 and the relative viability (Bexarotene + Vorinostat; first compound 8 µM) was 0.602. It also gave a relative viability (Bexarotene + Olaparib; first compound 0.08 µM) of 0.715, a relative viability (Bexarotene + Olaparib; first compound 0.253 µM) of 0.679 and a relative viability (Bexarotene + Olaparib; first compound 0.8 µM) of 0.85. It also gave a relative viability (Bexarotene + Olaparib; first compound 2.53 µM) of 0.672 and a relative viability (Bexarotene + Olaparib; first compound 8 µM) of 0.817.

For NCI-H647, the relative viability (Bexarotene + Linsitinib; first compound 0.08 µM) was 1.29, the relative viability (Bexarotene + Linsitinib; first compound 0.253 µM) was 1.41 and the relative viability (Bexarotene + Linsitinib; first compound 0.8 µM) was 1.22. It also gave a relative viability (Bexarotene + Linsitinib; first compound 2.53 µM) of 1.26, a relative viability (Bexarotene + Linsitinib; first compound 8 µM) of 0.914 and a relative viability (Bexarotene + Pemetrexed; first compound 0.08 µM) of 0.177. For the same cell line, the relative viability (Bexarotene + Pemetrexed; first compound 0.253 µM) was 0.155, the relative viability (Bexarotene + Pemetrexed; first compound 0.8 µM) was 0.153 and the relative viability (Bexarotene + Pemetrexed; first compound 2.53 µM) was 0.157. The relative viability (Bexarotene + Pemetrexed; first compound 8 µM) was 0.174, the relative viability (Bexarotene + Vorinostat; first compound 0.08 µM) was 0.544 and the relative viability (Bexarotene + Vorinostat; first compound 0.253 µM) was 0.917. The relative viability (Bexarotene + Vorinostat; first compound 0.8 µM) was 0.826, the relative viability (Bexarotene + Vorinostat; first compound 2.53 µM) was 0.978 and the relative viability (Bexarotene + Vorinostat; first compound 8 µM) was 0.538. It also gave a relative viability (Bexarotene + Olaparib; first compound 0.08 µM) of 0.725, a relative viability (Bexarotene + Olaparib; first compound 0.253 µM) of 0.629 and a relative viability (Bexarotene + Olaparib; first compound 0.8 µM) of 0.64. The relative viability (Bexarotene + Olaparib; first compound 2.53 µM) was 0.447 and the relative viability (Bexarotene + Olaparib; first compound 8 µM) was 0.464.

Source: the supplement of paper PMC10307832
